# Results: patent US9221826B2, “Pyrrolopyridazine JAK3 inhibitors and their use for the treatment of inflammatory and autoimmune diseases” (Bristol-Myers Squibb Company, priority 2011, dated 2015)
# Experiments:
# Assay type in all cases: biochemical
# [1] = target: T1, GST-JAK3 enzyme (Homo sapiens, UniProt P52333); experiment: JAK3 Kinase Assay Protocol (Caliper); settings: Caliper LabChip assay, ATP 8 μM, fluoresceinated peptide; read-out: LLE_JAK3_CAL (IC50)
# T1 sequence (P52333 1-1124): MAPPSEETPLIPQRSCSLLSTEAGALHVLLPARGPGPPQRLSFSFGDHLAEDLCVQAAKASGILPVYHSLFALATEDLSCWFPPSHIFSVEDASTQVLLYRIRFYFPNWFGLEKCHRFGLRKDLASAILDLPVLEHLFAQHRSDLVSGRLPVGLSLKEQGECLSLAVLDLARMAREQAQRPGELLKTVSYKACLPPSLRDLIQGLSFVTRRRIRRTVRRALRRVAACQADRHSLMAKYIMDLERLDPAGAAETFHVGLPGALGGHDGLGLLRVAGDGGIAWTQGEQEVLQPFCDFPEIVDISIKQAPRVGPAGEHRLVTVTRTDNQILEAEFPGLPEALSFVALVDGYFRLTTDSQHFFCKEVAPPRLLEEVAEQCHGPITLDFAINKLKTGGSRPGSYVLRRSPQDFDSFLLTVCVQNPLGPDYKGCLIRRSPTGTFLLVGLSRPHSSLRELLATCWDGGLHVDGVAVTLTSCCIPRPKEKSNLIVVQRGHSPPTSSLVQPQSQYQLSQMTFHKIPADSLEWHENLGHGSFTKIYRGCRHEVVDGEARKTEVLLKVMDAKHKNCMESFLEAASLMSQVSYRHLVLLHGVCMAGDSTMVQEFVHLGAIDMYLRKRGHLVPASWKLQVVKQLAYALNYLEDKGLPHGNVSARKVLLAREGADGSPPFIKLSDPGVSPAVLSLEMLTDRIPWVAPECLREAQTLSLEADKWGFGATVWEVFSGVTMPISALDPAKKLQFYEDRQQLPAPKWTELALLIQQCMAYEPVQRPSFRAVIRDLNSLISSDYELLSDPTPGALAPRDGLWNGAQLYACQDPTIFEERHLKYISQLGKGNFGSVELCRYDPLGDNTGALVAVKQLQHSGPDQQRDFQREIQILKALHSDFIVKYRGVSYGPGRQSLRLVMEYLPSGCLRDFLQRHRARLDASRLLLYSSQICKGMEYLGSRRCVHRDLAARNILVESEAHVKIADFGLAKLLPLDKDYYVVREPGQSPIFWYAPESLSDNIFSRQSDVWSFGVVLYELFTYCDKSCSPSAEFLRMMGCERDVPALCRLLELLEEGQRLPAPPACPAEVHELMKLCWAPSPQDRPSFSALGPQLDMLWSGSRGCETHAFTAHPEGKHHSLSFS
# Procedure: The assay reactions were performed in U-bottom 384-well plates. […] The reaction was initiated by the combination of GST-JAK3 enzyme with substrates and test compounds. The reactions were incubated at room temperature for 3 hours and terminated by adding 60 μl of 35 mM EDTA to each sample. Each reaction mixture was analyzed on the Caliper LabChip 3000 (Caliper, Hopkinton, Mass.) by electrophoretic separation of the fluorescent substrate and phosphorylated product. […] Compounds were dissolved at 10 mM in dimethylsulfoxide (DMSO) and evaluated at eleven concentrations. IC50 values were derived by non-linear regression analysis.
# [2] = target: T2, JAK3 enzyme (Homo sapiens, UniProt P52333); experiment: JAK3 Kinase Assay Protocol (Filter); settings: 33P γ-ATP, 8 μM ATP, CSKtide substrate, read-out: LLE_JAK3_FB (IC50)
# T2 sequence (P52333 1-1124): T1 sequence (P52333 1-1124)
# Procedure: Kinase reactions consisted of 5 ng of JAK3 enzyme, 30 uM CSKtide substrate, 0.2 μCi ^33P γ-ATP, 8 μM ATP in 30 μl kinase buffer (50 mM Hepes, pH 8.0, 10 mM MgCl2, 1 mM EGTA, 2 mM DTT). Reactions were incubated for 30 minutes at room temperature and stopped by the addition of cold trichloroacetic acid (TCA) to a final concentration of 15%. TCA precipitates were collected onto 384 well phosphocellulose filters (Millipore) using a Platemate to transfer the reaction mixture, washed on an EMBLA plate washer and the filters were quantitated using a TopCount 384-well liquid scintillation counter. […] Compounds were dissolved at 10 mM in dimethylsulfoxide (DMSO) and evaluated at six concentrations, each in triplicate. The final concentration of DMSO in the assay equaled 2%. IC50 values were derived by non-linear regression analysis.
# [3] = target: GST-JAK1 enzyme (Homo sapiens, UniProt P23458); experiment: JAK1 Kinase Assay Protocol; settings: Caliper LabChip assay, ATP 100 μM, fluoresceinated peptide; read-out: LLE_JAK1 (IC50)
# Procedure: The assay reactions were performed in U-bottom 384-well plates. The final assay volume was 30 μl prepared from 15 μl additions of enzyme and substrates (fluoresceinated peptide and ATP) and test compounds in assay buffer (20 mM HEPES pH 7.4, 10 mM MgCl2, 25 mM beta-glycerol phosphate, 0.015% Brij35 and 4 mM DTT). The reaction was initiated by the combination of GST-JAK1 enzyme with substrates and test compounds. The reactions were incubated at room temperature for 3 hours and terminated by adding 60 μl of 35 mM EDTA to each sample. Each reaction mixture was analyzed on the Caliper LabChip 3000 (Caliper, Hopkinton, Mass.) by electrophoretic separation of the fluorescent substrate and phosphorylated product. […] The final concentration of reagents in the assays was: ATP, 100 μM; fluoresceinated peptide, 1.5 μM; GST-JAK1, 12.5 nM; and DMSO, 1.6%. […] Compounds were dissolved at 10 mM in dimethylsulfoxide (DMSO) and evaluated at eleven concentrations. IC50 values were derived by non-linear regression analysis.
# Chain of GST-JAK1 enzyme (P23458 whole entry): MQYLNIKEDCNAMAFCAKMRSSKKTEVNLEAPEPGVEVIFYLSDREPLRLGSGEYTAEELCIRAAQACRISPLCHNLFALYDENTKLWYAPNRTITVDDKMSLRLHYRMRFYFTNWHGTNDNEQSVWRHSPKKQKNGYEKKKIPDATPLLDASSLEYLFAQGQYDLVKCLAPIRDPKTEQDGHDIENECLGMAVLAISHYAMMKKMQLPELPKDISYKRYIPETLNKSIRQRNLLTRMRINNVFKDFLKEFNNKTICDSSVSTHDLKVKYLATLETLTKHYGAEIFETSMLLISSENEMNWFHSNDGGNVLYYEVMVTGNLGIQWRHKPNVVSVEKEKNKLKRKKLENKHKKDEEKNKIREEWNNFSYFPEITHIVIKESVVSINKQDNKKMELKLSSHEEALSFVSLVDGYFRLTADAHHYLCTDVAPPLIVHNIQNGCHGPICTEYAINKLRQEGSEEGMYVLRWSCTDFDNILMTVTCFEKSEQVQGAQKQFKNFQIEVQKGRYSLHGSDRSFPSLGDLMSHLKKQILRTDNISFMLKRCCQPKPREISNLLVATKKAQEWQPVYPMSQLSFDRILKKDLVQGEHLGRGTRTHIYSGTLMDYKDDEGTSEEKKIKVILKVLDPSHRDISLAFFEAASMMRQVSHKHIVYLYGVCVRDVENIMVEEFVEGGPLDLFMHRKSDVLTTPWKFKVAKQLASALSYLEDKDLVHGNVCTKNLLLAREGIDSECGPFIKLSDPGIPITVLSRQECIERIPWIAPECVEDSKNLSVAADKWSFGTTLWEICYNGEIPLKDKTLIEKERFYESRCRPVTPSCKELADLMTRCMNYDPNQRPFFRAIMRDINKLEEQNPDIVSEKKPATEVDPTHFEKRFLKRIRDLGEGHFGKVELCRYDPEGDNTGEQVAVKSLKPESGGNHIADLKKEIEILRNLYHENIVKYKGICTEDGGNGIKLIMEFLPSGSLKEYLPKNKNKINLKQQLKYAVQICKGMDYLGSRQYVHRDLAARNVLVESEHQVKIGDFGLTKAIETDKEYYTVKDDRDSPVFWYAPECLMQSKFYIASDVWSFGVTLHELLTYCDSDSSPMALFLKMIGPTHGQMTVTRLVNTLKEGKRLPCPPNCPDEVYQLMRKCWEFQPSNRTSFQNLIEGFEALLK
SMILES,IC50 [1],IC50 [2],IC50 [3]
CC1CCN(c2cc3c(N[C@H](C)C(C)(C)F)c(C(N)=O)cnn3c2)C1=O (mixture of isomers) [Example 134],8 nM,8.7 nM,40.1 nM
"CC(Nc1c(C(N)=O)cnn2cc(-c3ccncc3)cc12)c1cc(F)ccc1F (racemic) [Example 181, (+/−)-4-((1-(2,5-difluorophenyl)ethyl)amino)-6-(4-pyridinyl)pyrrolo[1,2-b]pyridazine-3-carboxamide]",96.4 nM,49.2 nM,106 nM
"C[C@@H](Nc1c(C(N)=O)cnn2cc(-c3cccc(C(O)CO)c3)cc12)C1CC1 (mixture of isomers) [Example 187, (R)-4-(1-cyclopropylethylamino)-6-(3-(1,2-dihydroxyethyl)phenyl)pyrrolo[1,2-b]-pyridazine-3-carboxamide]",1.3 nM,1 nM,3 nM
"CC(Nc1c(C(N)=O)cnn2cc(-c3ccccc3)cc12)C(C)(C)C(N)=O (racemic) [Example 193, (+/−)-4-(4-amino-3,3-dimethyl-4-oxobutan-2-ylamino)-6-phenylpyrrolo[1,2-b]-pyridazine-3-carboxamide]",,1.8 nM,2.7 nM
"COc1ccc(-c2cc3c(N[C@H](C)C(O)C4CC4)c(C(N)=O)cnn3c2)cn1 (single isomer, unassigned; isomer a) [Example 210]",0.8 nM,0.5 nM,3.6 nM
C[C@@H](Nc1c(C(N)=O)cnn2cc(N3CCCC3=O)cc12)C(C)(C)C [Example 2],3.7 nM,0.9 nM,43 nM
C[C@@H](Nc1c(C(N)=O)cnn2cc(-n3ccccc3=O)cc12)C(C)(C)C [Example 5],24 nM,48.4 nM,193 nM
CCOC(=O)Nc1cc2c(N[C@H](C)C(C)(C)C)c(C(N)=O)cnn2c1 [Example 9],0.7 nM,0.2 nM,7 nM
C[C@@H](Nc1c(C(N)=O)cnn2cc(N3CCCCS3(=O)=O)cc12)C(C)(C)C [Example 17],22.4 nM,21.6 nM,141 nM
CC(C)[C@H]1COC(=O)N1c1cc2c(N[C@H](C)C(C)(C)C)c(C(N)=O)cnn2c1 [Example 18],105 nM,109 nM,570 nM
C[C@@H](Nc1c(C(N)=O)cnn2cc(N3CCOC3=O)cc12)C(C)(C)C [Example 22],2.8 nM,0.7 nM,34 nM
C[C@@H](Nc1c(C(N)=O)cnn2cc(N3CCN(C)C3=O)cc12)C(C)(C)C [Example 25],4.7 nM,5.9 nM,86 nM
C[C@@H](Nc1c(C(N)=O)cnn2cc(N3CCNC3=O)cc12)C(C)(C)C [Example 29],5.3 nM,1.2 nM,46.1 nM
C[C@@H](Nc1c(C(N)=O)cnn2cc(-c3ccc(F)cc3)cc12)C(C)(C)F [Example 37],0.6 nM,18.8 nM,3.8 nM
C[C@@H](Nc1c(C(N)=O)cnn2cc(-c3ccn[nH]3)cc12)C(C)(C)F [Example 43],2.5 nM,1.2 nM,8.8 nM
"C[C@@H](Nc1c(C(N)=O)cnn2cc(-c3cccc(C#N)c3)cc12)C(C)(C)F [Example 53, (R)-6-(3-cyanophenyl)-4-(3-fluoro-3-methylbutan-2-ylamino)pyrrolo[1,2-b]pyridazine-3-carboxamide]",1.4 nM,0.9 nM,5.2 nM
C[C@@H](N)c1cccc(-c2cc3c(N[C@H](C)C(C)(C)F)c(C(N)=O)cnn3c2)c1 [Example 62],1.8 nM,0.7 nM,4 nM
"C[C@@H](Nc1c(C(N)=O)cnn2cc(-c3cccc(CN)c3)cc12)C(C)(C)F [Example 68, 6-(3-(aminomethyl)phenyl)-4-(((1R)-2-fluoro-1,2-dimethylpropyl)amino) pyrrolo[1,2-b]pyridazine-3-carboxamide]",1 nM,0.7 nM,
NC(=O)c1cnn2cc(-c3ccccc3)cc2c1N[C@H](C(N)=O)c1ccccc1 [Example 125],66.7 nM,18.6 nM,260 nM
"CSc1nnc(-c2cc3c(N[C@H](C)C4CC4)c(C(N)=O)cnn3c2)o1 [Example 127, (R)-4-(1-cyclopropylethylamino)-6-(5-(methylthio)-1,3,4-oxadiazol-2-yl)pyrrolo[1,2-b]pyridazine-3-carboxamide]",23.4 nM,26 nM,160 nM
C[C@@H](Nc1c(C(N)=O)cnn2cc(N3CCOCC3=O)cc12)C(C)(C)F [Example 129],8.4 nM,11 nM,61.1 nM
C[C@@H](Nc1c(C(N)=O)cnn2cc(N3CCCS3(=O)=O)cc12)C(C)(C)F [Example 131],4.8 nM,11.3 nM,83.1 nM
CC(C)Nc1c(C(N)=O)cnn2cc(-c3ccc(C#N)cc3)cc12 [Example 146],11.1 nM,15.1 nM,26.5 nM
CC(C)Nc1c(C(N)=O)cnn2cc(-c3ccc4c(c3)OCO4)cc12 [Example 149],23.8 nM,,
CC(C)Nc1c(C(N)=O)cnn2cc(-c3ccnc4ccccc34)cc12 [Example 153],223 nM,178 nM,402 nM
COc1cc(-c2cc3c(NC(C)C)c(C(N)=O)cnn3c2)c(F)cn1 [Example 154],56.3 nM,35.1 nM,149 nM
COc1ccc(-c2cc3c(N[C@H](C)C(C)(C)c4nc(C(N)=O)co4)c(C(N)=O)cnn3c2)cc1 [Example 219],1.2 nM,,0.6 nM
C[C@@H](Nc1c(C(N)=O)cnn2cc(-c3ccc(C#N)cc3)cc12)C(C)(C)c1nc(C(N)=O)co1 [Example 222],0.9 nM,,0.4 nM
"CC[C@@H](c1nc(C(N)=O)co1)[C@@H](C)Nc1c(C(N)=O)cnn2cc(-c3ccc(OC)nc3)cc12 [Example 224, 2-((2R,3R)-2-((3-carbamoyl-6-(6-methoxypyridin-3-yl)pyrrolo[1,2-b]pyridazin-4-yl)amino)pentan-3-yl)oxazole-4-carboxamide]",0.3 nM,,0.5 nM
"C[C@@H](O)[C@@H](COP(=O)(O)O)Nc1c(C(N)=O)cnn2cc(-c3ccccc3)cc12 [Example 240, (2R,3R)-2-((3-carbamoyl-6-phenylpyrrolo[1,2-b]pyridazin-4-yl)amino)-3-hydroxybutyl dihydrogen phosphate, disodium]",880 nM,,2200 nM
